Assay results reported in US20110190267A1, “PRODRUGS OF OPIOIDS AND USES THEREOF” (priority 2010, published 2011).
“And” between values parts separate entries of the source, which are not always exact repeats. Identical values can stand only once. Counter-ions that a name gives are not always drawn. Like-named read-outs stand apart in the source and are kept apart here. Marks after values point to notes of the source that are not given here.

Legend:
[1] = format: physicochemical
Protocol: Additionally the potential activation at blood pH of 7.4 was investigated over a similar period. The concentrations of the prodrug & drug were assayed by HPLC.

[2] = format: in vitro ADME
[3] = in vivo; conditions: male, rat, plasma, po, 10 mg naloxone free base equivalents/kg, naloxone in plasma after oral naloxone, 10 mg free base equivalents/kg, male rats; for half-life: t½
Protocol: Blood samples were taken at various times after administration and submitted to analysis for the parent drug and pro-drug using a validated LC-MS-MS assay. Pharmacokinetic parameters derived from the plasma analytical data were determined using Win Nonlin.

[4] = Pharmacokinetics of R,R tapentadol or R,R tapentadol PABA carbamate, dogs (Example 41); format: in vivo, Beagle dogs; conditions: for AUC / Cmax / T>50%Cmax / Tmax / t½: RR-tapentadol in plasma after oral RR-tapentadol, 1 mg free base equivalents/kg, female beagle dogs
Protocol: (§1) Blood samples were taken at various times after administration, and submitted to analysis for the parent drug and prodrug using a validated LC-MS-MS assay. Pharmacokinetic parameters derived from the plasma analytical data were determined using Win Nonlin.

[5] = Pharmacokinetics of R,R tapentadol or R,R tapentadol PABA carbamate, monkeys (Example 40); format: in vivo, cynomolgus monkeys; conditions: R,R tapentadol in plasma after oral R,R tapentadol, 3 mg free base equivalents/kg
Protocol: as §1

[6] = Pharmacokinetics of racemic tapentadol or tapentadol PABA carbamate, monkeys (Example 39)
[7] = in vivo; conditions: monkey, read-out: Monkey Oral Bioavailability (%)
Protocol: (§2) Blood samples were taken at various times after administration and submitted to analysis for the parent drug and prodrug using a validated LC-MS-MS assay. Pharmacokinetic parameters derived from the plasma analytical data were determined using Win Nonlin.

[8] = in vivo; conditions: dog, read-out: Dog Oral Bioavailability (%)
Protocol: as §2

[9] = Pharmacokinetics of butorphanol or butorphanol PABA carbamate, monkeys (Example 43); format: in vivo, cynomolgus monkeys
Protocol: as §1

[10] = Pharmacokinetics of butorphanol or butorphanol PABA carbamate, dogs (Example 44); format: in vivo, beagle dogs; conditions: butorphanol in plasma after oral butorphanol, 0.5 mg butorphanol free base/kg, dog; for half-life: read-out: t½ (converted)
Protocol: Test substances, butorphanol or butorphanol_PABA carbamate were orally administered to two male beagle dogs at 0.5 mg butorphanol free base equivalents/kg in a parallel group study design.

[11] = Balikova et al. (2001); cited from earlier work
[12] = simulated intestinal fluid pH 6.8, 37 C
[13] = naloxone in plasma after oral naloxone, 10 mg free base equivalents/kg, male rats, single animal

Q: With `CCC1(c2cccc(OC(=O)NC(C(=O)O)C(C)C)c2)CCCCN(C)C1` [Meptazinol (S) valine carbamate] as the molecule, how does the “Chemical Stability, % prodrug remaining at 2 h, pH 10.0” value ([1]; pH 10.0, 37° C, 2 h) read?
A: Its value is 66% pH 10.0.

Q: And the “Biological/chemical stability - SIF - pH 6.8, 37 C. % prodrug remaining at 2 h” value [2, 12]?
A: The value was 99%.

Q: Which “Chemical Stability, % prodrug remaining at 2 h, pH 10.0” value ([1]; pH 10.0, 37° C, 2 h) does the source give for `CCC(C)C(NC(=O)Oc1cccc(C2(CC)CCCCN(C)C2)c1)C(=O)O` (stereo not shown) [Meptazinol isoleucine carbamate] here?
A: Its value is 73% pH 10.0.

Q: What about the “Biological/chemical stability - SIF - pH 6.8, 37 C. % prodrug remaining at 2 h” value [2, 12] of the same molecule?
A: The value was 99%.

Q: With `C=CCN1CC[C@]23c4c5ccc(O)c4O[C@H]2C(=O)CC[C@@]3(O)[C@H]1C5` [naloxone] as the molecule, how does the AUC ([3]; Mean) read?
A: The AUC was 22 ng·h/mL.

Q: And the AUC ([3]; single animal)?
A: The AUC was 22 ng·h/mL.

Q: And the Cmax ([3]; Mean)?
A: The Cmax was 6.8 ng/mL.

Q: And the Cmax ([3]; single animal)?
A: Its Cmax is 7.1 ng/mL.

Q: And the Tmax ([3]; Mean)?
A: Its Tmax is 0.35 h.

Q: What about the Tmax ([3]; single animal) of the same molecule?
A: The Tmax was 0.25 h.

Q: And the half-life ([3]; Mean)?
A: The half-life was 3.9 h.

Q: And the half-life ([3]; single animal)?
A: Its half-life is 3.9 h.

Q: What about the “T>50%Cmax” value (naloxone in plasma after oral naloxone, 10 mg free base equivalents/kg, male rats, Mean) of the same molecule?
A: Its value is 2.1 h.

Q: What about the Cmax [13] of the same molecule?
A: The Cmax was 6.3 ng/mL and 7.6 ng/mL and 8.1 ng/mL and 4.9 ng/mL.

Q: What about the “T>50%Cmax” value [13] of the same molecule?
A: The value was 1.2 h and 1.5 h and 1.8 h and 1.3 h and 4.5 h.

Q: And the Tmax [13]?
A: Its Tmax is 0.50 h.

Q: And the t½ [13]?
A: The t½ was 3.8 h.

Q: And the “variability around bioavailability of naloxone” value (rats, oral 10 mg/kg)?
A: Its value is “over 10%”.

Q: What does the source list for `CCC1(c2cccc(OC(=O)NC(C(=O)O)C(C)C)c2)CCCCN(C)C1` [Meptazinol (R)-valine carbamate]?
A: Chemical Stability - pH 7.4, 37° C. % prodrug remaining at 2 h ([1]; pH 7.4, 37° C, 2 h): 96%; Biological/chemical stability - SIF - pH 6.8, 37 C. % prodrug remaining at 2 h [2, 12]: 74%

Q: With `CC[C@@H](c1cccc(O)c1)[C@@H](C)CN(C)C` [R,R tapentadol] as the molecule, how does the AUC ([4]; Mean) read?
A: The AUC was 4.16 ng·h/mL.

Q: And the Cmax ([4]; Mean)?
A: Its Cmax is 3.21 ng/mL.

Q: What about the “T>50%Cmax” value ([4]; Mean) of the same molecule?
A: The value was 0.7 h.

Q: And the Tmax ([4]; Mean)?
A: The Tmax was 0.44 h.

Q: What about the t½ ([4]; Mean) of the same molecule?
A: The t½ was 0.6 h.

Q: And the AUC ([4]; single animal)?
A: Its AUC is 1.74 ng·h/mL and 8.35 ng·h/mL and 2.38 ng·h/mL.

Q: What about the Cmax ([4]; single animal) of the same molecule?
A: The Cmax was 1.25 ng/mL and 8.48 ng/mL and 0.39 ng/mL and 2.71 ng/mL.

Q: And the “T>50%Cmax” value ([4]; single animal)?
A: The value was 1.0 h and 0.6 h (2×).

Q: What about the Tmax ([4]; single animal) of the same molecule?
A: The Tmax was 0.50 h (3×) and 0.25 h.

Q: What about the t½ ([4]; single animal) of the same molecule?
A: Its t½ is 0.7 h and 0.6 h and 0.5 h.

Q: What about the “T50% Cmax of R,R tapentadol” value ([4]; dogs, oral 1 mg R,R tapentadol free base equivalents/kg) of the same molecule?
A: The value was 0.7 h.

Q: And the AUC ([5]; Mean)?
A: The AUC was 7.6 ng·h/mL.

Q: What about the Cmax ([5]; Mean) of the same molecule?
A: Its Cmax is 2.2 ng/mL.

Q: And the “T>50%Cmax” value ([5]; Mean)?
A: The value was 2.8 h.

Q: What about the Tmax ([5]; Mean) of the same molecule?
A: The Tmax was 1.1 h.

Q: And the t½ ([5]; Mean)?
A: Its t½ is 1.6 h.

Q: And the AUC ([5]; single animal)?
A: The AUC was 10 ng·h/mL and 8.6 ng·h/mL and 7.7 ng·h/mL and 4.0 ng·h/mL.

Q: And the Cmax ([5]; single animal)?
A: The Cmax was 2.9 ng/mL and 2.6 ng/mL and 2.1 ng/mL and 1.1 ng/mL.

Q: What about the “T>50%Cmax” value ([5]; single animal) of the same molecule?
A: Its value is 2.8 h (2×) and 2.7 h and 2.9 h.

Q: And the Tmax ([5]; single animal)?
A: Its Tmax is 0.5 h and 1.0 h (2×) and 2.0 h.

Q: And the t½ ([5]; single animal)?
A: Its t½ is 1.5 h (2×) and 1.7 h and 1.6 h.

Q: What does the source list for `CC[C@@H](c1cccc(O)c1)[C@@H](C)CN(C)C` [tapentadol]?
A: half-life ([6]; cynomolgus monkey, plasma, po, 3 mg/kg): 1.2 h; AUC ([6]; male, cynomolgus monkey, plasma, po, 1 mg free base equivalents/kg): 5.4 ng·h/mL; Cmax ([6]; male, cynomolgus monkey, plasma, po, 1 mg free base equivalents/kg, Cmax * (estimated), racemic tapentadol (all four isomers), oral tapentadol scaled up from 1 to 3 mg free base equivalents/kg, monkeys, n = 5, LLOQ taken as Cmax): 2.4 ng/mL; AUC ([6]; male, cynomolgus monkey, plasma, po, 1 mg/kg tapentadol free base equivalents/kg): < 5.4 ng·h/mL; plasma concentrations of tapentadol, each isomer (LLOQ) ([6]; oral tapentadol 1 mg/kg, monkeys): < 0.4 ng/mL; Cmax * (estimated) ([6]; racemic tapentadol (all four isomers), oral tapentadol scaled up from 1 to 3 mg free base equivalents/kg, monkeys, n = 5, LLOQ taken as Cmax): <2.4 ng/mL

Q: With `CCC1(c2cccc(OC(=O)NC(CCSC)C(=O)O)c2)CCCCN(C)C1` (stereo not shown) [Meptazinol methionine carbamate] as the molecule, how does the “Chemical Stability, % prodrug remaining at 2 h, pH 10.0” value ([1]; buffer, 2 h, pH 10) read?
A: Its value is 60% pH 10.0.

Q: And the “Biological/chemical stability - SIF - pH 6.8, 37 C. % prodrug remaining at 2 h” value ([2]; simulated gi fluid, pH 6.8)?
A: Its value is 100%.

Q: For `CCC1(c2cccc(OC(=O)N[C@H](C(=O)O)C(C)C)c2)CCCCN(C)C1` (stereo partly shown) [Meptazinol-valine carbamate], which “Chemical stability at pH 7.4” value ([1]; pH 7.4) is on record?
A: Its value is about 100%.

Q: Which bioavailability [7] does the source give for `CCC1(c2cccc(O)c2)CCCCN(C)C1` (stereo not shown) [Meptazinol HCl (oral), Meptazinol HCl] here?
A: The bioavailability was 1.8 ± 0.2%.

Q: And the bioavailability [8]?
A: The bioavailability was 6 ± 2.1%.

Q: Which Cmax ([9]; butorphanol in plasma after oral butorphanol, 1.0 mg butorphanol free base/kg, monkey, single animal, below the LLOQ of 0.1 ng/mL) does the source give for `Oc1ccc2c(c1)[C@@]13CCCC[C@@]1(O)[C@@H](C2)N(CC1CCC1)CC3` [butorphanol] here?
A: The Cmax was <0.1* ng/mL.

Q: What about the AUC ([9]; male, cynomolgus monkey, 1 mg butorphanol free base equivalents/kg, butorphanol in plasma after oral butorphanol, 1.0 mg butorphanol free base/kg, Average, estimate of maximal systemic exposure) of the same molecule?
A: The AUC was 0.62 ng·h/mL.

Q: What about the Tmax ([9]; male, cynomolgus monkey, 1 mg butorphanol free base equivalents/kg, butorphanol in plasma after oral butorphanol, 1.0 mg butorphanol free base/kg, Average, plasma concentrations below the LLOQ of 0.1 ng/mL) of the same molecule?
A: Its Tmax is 0.5 h.

Q: And the half-life ([9]; male, cynomolgus monkey, plasma, 1 mg butorphanol free base equivalents/kg, butorphanol, oral butorphanol 1.0 mg free base/kg, Average, value after giving prodrug and used for estimating maximal systemic exposure, read-out: t½ (converted))?
A: The half-life was 6.1 h.

Q: What about the Cmax ([9]; male, cynomolgus monkey, plasma, po, 1 mg butorphanol free base equivalents/kg, butorphanol in plasma after oral butorphanol, 1.0 mg butorphanol free base/kg, Average, plasma concentrations below the LLOQ of 0.1 ng/mL, read-out: Cmax) of the same molecule?
A: The Cmax was 0.1 ng/mL.

Q: And the Cmax ([9]; male, cynomolgus monkey, plasma, po, 1 mg butorphanol free base equivalents/kg, butorphanol in plasma after oral butorphanol, 1.0 mg butorphanol free base/kg, single animal, below the LLOQ of 0.1 ng/mL, read-out: Cmax)?
A: The Cmax was under 0.1 ng/mL.

Q: And the “T>50%Cmax” value ([10]; Average)?
A: The value was 2.0 h.

Q: What about the AUC ([10]; single animal) of the same molecule?
A: Its AUC is 1.80 ng·h/mL.

Q: What about the Cmax ([10]; single animal) of the same molecule?
A: The Cmax was 0.56 ng/mL.

Q: What about the “T>50%Cmax” value ([10]; single animal) of the same molecule?
A: Its value is 1.6 h and 2.4 h.

Q: What about the Tmax ([10]; single animal) of the same molecule?
A: Its Tmax is 1.00 h.

Q: And the t½ ([10]; single animal)?
A: The t½ was 1.7 h.

Q: What about the AUC ([10]; male, beagle, plasma, po, 0.5 mg/kg, Average, read-out: AUC) of the same molecule?
A: The AUC was 2.05 ng·h/mL.

Q: What about the Cmax ([10]; male, beagle, plasma, po, 0.5 mg/kg, Average, read-out: Cmax) of the same molecule?
A: Its Cmax is 0.73 ng/mL.

Q: What about the Tmax ([10]; male, beagle, plasma, po, 0.5 mg/kg, Average, read-out: Tmax) of the same molecule?
A: The Tmax was 0.75 h.

Q: And the half-life ([10]; male, beagle, plasma, po, 0.5 mg/kg, Average)?
A: Its half-life is 1.6 h.

Q: And the AUC ([10]; male, beagle, plasma, po, 0.5 mg/kg, single animal, read-out: AUC)?
A: Its AUC is 2.3 ng·h/mL.

Q: What about the Cmax ([10]; male, beagle, plasma, po, 0.5 mg/kg, single animal, read-out: Cmax) of the same molecule?
A: Its Cmax is 0.9 ng/mL.

Q: What about the Tmax ([10]; male, beagle, plasma, po, 0.5 mg/kg, single animal, read-out: Tmax) of the same molecule?
A: The Tmax was 0.5 h.

Q: And the half-life ([10]; male, beagle, plasma, po, 0.5 mg/kg, single animal)?
A: The half-life was 1.6 h.

Q: For `COc1ccc2c3c1O[C@H]1[C@@H](O)CC[C@H]4[C@@H](C2)N(C)CC[C@@]341` [dihydrocodeine], which “oral dose converted to dihydromorphine” value [11] is on record?
A: Its value is “less than 2%”.
